Assay results published in paper PMC12059926, “Development and Biological Assessment of Thiazole-Based Pyridines for Targeted Therapy in Lung Cancer” (ACS Omega, 2025).
Values after ≈ are worked out from the molar mass of the structure shown.

Assays:
[1] = test system: A549 lung cancer cell line; assay: MTT cytotoxicity assay on A549 lung cancer cells; assay type: cell-based, human; details: for IC50: Homo sapiens, A549 cells, MTT, mean ± SD; for SI: selectivity index: L929 versus A549
Protocol: (§1) The synthesized final compounds (2a–2o) were initially evaluated for their cytotoxic effects to assess their anticancer activity against A549 lung cancer cells. The healthy cell line L929 (mouse fibroblast cell line) was also used to determine the selective antiproliferative properties of the compounds.
(§2) The human lung cancer cell line A549 and mouse fibroblast cell line L929 were used to evaluate the cytotoxicity of the compounds. Cells propagated under the specified conditions were cultured in 96-well plates at 5 × 10^3 cells/well. […] At the end of the incubation period, cell viability was determined by measuring the absorbance of the purple color formed by the breakdown of the MTT dye at 540 nm. Half-maximal inhibitory concentrations (IC50) were determined based on the tested concentrations of the compounds. The tests were triplicated.[38] The MTT assay for cytotoxicity of compounds was determined according to previously published procedures.[39],[40]
(§3) The concentration that inhibits 50% of the cell population was calculated as IC50 using GraphPad Prism 9.0 statistical software program, and standard deviation values were analyzed. Data are expressed as mean ± SD. Comparisons were made using one-way ANOVA for continuous variables with normal distribution, and Tukey’s test was used for post hoc analysis of group differences. p < 0.05 was considered statistically significant.
(§4) The cell viability value of the control group was considered 100%, and all viability values were calculated using the formula below. The experiment was performed in 3 replicates. [drawing 2]

caspase-3 in A549 cells = assay: Caspase-3 activation; assay type: cell-based, human; details: 24 h
Excerpt: Caspases can take part in the cell death mechanism through both intrinsic and extrinsic pathways, with caspase-3 being the first enzyme activated in the apoptosis process.[24] Activation of the caspase-3 enzyme by the compounds, indicated as caspase-3 positive, and inhibition, indicated as caspase-3 negative, are presented in percentage terms in Table 5.
A Spectrofluorometric Caspase-3 assay kit (BD Pharmingen, Franklin Lakes, NJ) was used for determining Caspase-3 activation by measuring the caspase-3 or DEVD-cleaving activity. Initially, A549 cells at a concentration of 1 × 10^6 cells/mL underwent a washing process using phosphate-buffered saline (PBS). Subsequently, they were suspended in a cold solution known as cell lysis buffer and kept on ice for a duration of 30 min. […] In each reaction, a mixture of […] of diluted Ac DEVD-AMC (a synthetic tetrapeptide fluorogenic substrate used to measure caspase-3 activity) and 0.2 mL of 1x HEPES buffer was added to a well. Then, […] of cell lysate was introduced into each well/reaction. The reaction mixtures were incubated at 37 °C for 1 h. The amount of AMC released from Ac-DEVD-AMC was measured by using a microplate reader (PerkinElmer/Victor/X3) with an excitation wavelength of 380 nm and an emission wavelength of 460 nm. Apoptotic cell lysates containing active caspase-3 produced significant emissions compared to controls. In addition, the AMC emission of nonapoptotic control cell lysates was taken as 100%, and the emission of other cell lysates was measured relative to the emission of control cells. All experiments were repeated in duplicate. Active compounds, which are the most cytotoxic compounds, were evaluated for caspase-3 activation using previously published procedures.[40],[44]
(§5) The apoptotic results (Annexin V-FITC, Caspase 3, JC-1) were evaluated by flow cytometry using FACS Diva Version 6.1.1. software, and the apoptotic cells were determined as the percentage of cells.

[2] = test system: L929 (mouse fibroblast cell line); assay: MTT cytotoxicity assay on L929 healthy cells; assay type: cell-based; details: mean ± SD
Protocol: as §1, §2, §3, §4

MMP-9 enzyme = biological target: T1, MMP-9 enzyme (Homo sapiens, UniProt P14780); assay: MMP-9 enzyme inhibition, colorimetric kit; assay type: biochemical; details: for inhibition at 100 µM: compounds at 100 μM, mean ± SD
T1 construct: purchased Enzo Life Sciences Inc. (Farmingdale, NY, USA)
Protocol: Compounds (2a–2o) were tested to determine their MMP-9 enzyme inhibition potential. The compounds were tested at a concentration of 100 μM, and the standard molecule NNGH at a concentration of 1.3 μM.
MMP-9 inhibition was assessed using a colorimetric kit from Enzo Life Sciences Inc. (Farmingdale, NY, USA), following procedures similar to those described in previous studies.[25],[26] A thiopeptide was used as a chromogenic substrate (Ac-PLG-[2-mercapto-4-methyl-pentanoyl]-LG-OC2H5). 2-Nitro-5-thiobenzoic acid, formed by the reaction of the sulfhydryl group produced as a result of hydrolysis of the thioester by the MMP-9 enzyme and then reaction with DTNB [5,5′-dithiobis(2-nitrobenzoic acid), Ellman’s reagent], gives absorbance at 412 nm in a microplate reader (BioTek, PowerWave, Gen5 software, Winooski, VT, USA). Based on these absorptions, MMP-9 inhibition concentrations were determined. The assays were performed in triplicate. NNGH (N-isobutyl-N-(4-methoxyphenylsulfonyl)glycyl hydroxamic acid) was used as a control inhibitor. Data were shown as mean ± SD. The inhibitor % remaining activity of MMPs was calculated using the following equation:
Inhibitor% activity remaining = (V inhibitor/V control) × 100.
The inhibition (percent) of MMPs was calculated using the following equation: [drawing 1]

A549 cells [3] = assay: Mitochondrial membrane potential (JC-1) by flow cytometry; assay type: cell-based, human; details: IC50 dose, JC-1
Excerpt: The mitochondrial membrane potential provides information about the state of electrons during ATP production through oxidative phosphorylation, which is essential for cellular viability. Mitochondrial dysfunction occurs when this electrical regulation is disturbed and can occur in various diseases and the process of apoptosis.[23] […] Compounds 2m, 2g, and 2c followed this, with depolarization levels exceeding 21%. The mitochondrial dysfunction in compound 2m can be considered a contributing factor to apoptosis.
Cell staining with JC-1 was performed according to the manufacturer’s recommendations for the BD , Pharmingen Flow Cytometry Kit. […] Compounds were applied at IC50 doses of no more than 1 × 10^6/mL per well in 6-well plates. After treatment, each cell suspension was transferred to a 15 mL polystyrene centrifuge tube, the cells were centrifuged at 400g for 5 min, and the supernatant was removed. 0.5 mL of freshly prepared working solution was added to each pellet, and the solution was vortexed. The test cells were soaked in JC-1 working solution at 37 °C for 10–15 min, and the cells were washed twice. After centrifugation at 400g for 5 min, each cell pellet was suspended in 0.5 mL of 1X assay buffer and vortexed. The cells were then analyzed by flow cytometer.
as §5

A549 cells [4] = assay: Annexin V-FITC/propidium iodide apoptosis detection by flow cytometry; assay type: cell-based, human; details: IC50 dose, 24 h
Protocol: To determine whether the antiproliferative effects of the compounds on the A549 cell line proceed through the apoptotic or necrotic pathway, the assay was performed with Annexin V-FITC/propidium iodide dyes in a flow cytometry device. […] At least 10,000 cells were analyzed, and quadrant analysis was performed. The results are presented as early apoptotic cells, late apoptotic cells, viable cells, and necrotic cells in Table 3, and as a diagram in Figure 1. In control cells, the number of viable cells was 92.04%, necrotic cells were 1.16%, early apoptotic cells were 3.43%, and late apoptotic cells were 3.28%. […] Among the compounds, 2m was the most apoptosis-inducing compound, with 14.99% early apoptotic and 10.63% late apoptotic cell percentages. […] This compound was followed by compound 2c with a 13.79% early apoptotic cells and 4.03% late apoptotic cells. Among the compounds, compound 2o induced early apoptosis the least (1.87%) and necrosis the most (3.10%). […] Nonapoptotic cell death methods, such as necroptosis and pyroptosis, can be considered for the aforementioned compounds.
The compounds were treated with A549 cells at IC50 doses, and early and late apoptosis, necrosis, and viable cell ratios were determined as percentages. Cells were seeded at 37 °C in humidified air containing 5% CO2 with 10^5 cells/plate in each well. A549 cells were collected, washed twice with ice-cold PBS, and resuspended in 100 μL of binding buffer. Five μL (5 μg/mL) of Annexin V-FITC and PI were added to the cells and incubated for 15 min in the dark at room temperature (20–25 °C). Then, 400 μL of binding buffer was added to the mixture samples and analyzed on a flow cytometer. Quadrant analyses were also presented.[41] Compounds 2a, 2b, 2c, 2j, 2m, and 2o, with a satisfactory cytotoxic profile, were examined via flow cytometry to assess the apoptosis/necrosis cell ratio using previously published procedures.[42]
as §5

T1 sequence (P14780 107-444 limits assumed): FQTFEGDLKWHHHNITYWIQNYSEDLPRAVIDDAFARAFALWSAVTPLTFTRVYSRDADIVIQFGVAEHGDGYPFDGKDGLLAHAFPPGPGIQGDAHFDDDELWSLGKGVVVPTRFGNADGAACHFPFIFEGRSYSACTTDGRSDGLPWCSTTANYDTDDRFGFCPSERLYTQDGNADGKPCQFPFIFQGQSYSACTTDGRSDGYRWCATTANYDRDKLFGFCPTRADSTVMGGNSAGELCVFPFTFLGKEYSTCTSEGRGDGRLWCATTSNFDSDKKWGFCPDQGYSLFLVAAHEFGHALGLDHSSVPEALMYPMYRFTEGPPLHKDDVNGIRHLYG

Row | Compound | inhibition at 100 µM (MMP-9 enzyme) [%] | IC50 [1] [µg/mL] | % Caspase-3 negative cells (caspase-3 in A549 cells) [%] | % Caspase-3 positive cells (caspase-3 in A549 cells) [%] | IC50 [2] [µg/mL] | % Mitochondrial membrane polarized cells (A549 cells [3]) [%] | Q1-LL viable cells (A549 cells [4]) [%] | Q1-LR early apoptotic cells (A549 cells [4]) [%] | Q1-UL necrotic cells (A549 cells [4]) [%] | Q1-UR late apoptotic cells (A549 cells [4]) [%] | SI: selectivity index [1] | MMP-9 inhibition, result in words (MMP-9 enzyme; compared with 2f)
1 | C(=NNc1nc(-c2ccc(-c3ccccc3)cc2)cs1)c1ccccn1 [Compound 2c, 4-([1,1’-Biphenyl]-4-yl)-2-(2-(pyridin-2-ylmethylene)hydrazinyl)thiazole] | 23.1 ± 2.08 | 10.1 ± 0.38 (≈ 28.4 µM) | 91.76 | 5.95 | 125 ± 0.64 (≈ 351 µM) | 79.61 | 81.54 | 13.79 | 0.64 | 4.03 | – | –
2 | CS(=O)(=O)c1ccc(-c2csc(NN=Cc3cccnc3)n2)cc1 [Compound 2g, 4-(4-(Methylsulfonyl)phenyl)-2-(2-(pyridin-3-ylmethylene)hydrazinyl)thiazole] | 8.63 ± 1.32 | 8.4 ± 0.34 (≈ 23.4 µM) | 73.16 | 0.38 | 56.4 ± 0.59 (≈ 157 µM) | 76.68 | 88.98 | 7.20 | 0.98 | 2.84 | – | –
3 | COc1ccc(OC)c(-c2csc(NN=Cc3ccncc3)n2)c1 [Compound 2k, 4-(2,5-Dimethoxyphenyl)-2-(2-(pyridin-4-ylmethylene)hydrazinyl)thiazole] | – | 6.07 ± 0.31 (≈ 17.8 µM) | – | – | 8.59 ± 0.32 (≈ 25.2 µM) | – | – | – | – | – | 1.42 | less active than 2f (2,5-dimethoxypehnyl) or inactive

Second part, led by results:

Row | inhibition at 100 µM (MMP-9 enzyme) [%] | Compound | IC50 [1] [µg/mL] | % Caspase-3 negative cells (caspase-3 in A549 cells) [%] | % Caspase-3 positive cells (caspase-3 in A549 cells) [%] | IC50 [2] [µg/mL] | % Mitochondrial membrane polarized cells (A549 cells [3]) [%] | Q1-LL viable cells (A549 cells [4]) [%] | Q1-LR early apoptotic cells (A549 cells [4]) [%] | Q1-UL necrotic cells (A549 cells [4]) [%] | Q1-UR late apoptotic cells (A549 cells [4]) [%] | SI: selectivity index [1] | MMP-9 inhibition, result in words (MMP-9 enzyme; compared with 2f)
4 | 9.4 ± 1.22 | C(=NNc1nc(-c2ccc(-c3ccccc3)cc2)cs1)c1ccncc1 [Compound 2m, 4-([1,1’-Biphenyl]-4-Yl)-2-(2-(pyridin-4-ylmethylene)hydrazinyl)thiazole] | 12.1 ± 0.43 (≈ 33.8 µM) | 69.82 | 0.86 | 31.2 ± 0.55 (≈ 87.7 µM) | 75.72 | 73.32 | 14.99 | 1.07 | 10.63 | – | –
5 | 19 ± 3.63 | Oc1ccc(-c2csc(NN=Cc3ccncc3)n2)cc1O [Compound 2n, 4-(2-(2-(Pyridin-4-ylmethylene)hydrazinyl)thiazol-4-yl)benzene-1,2-diol] | 4.23 ± 0.54 (≈ 13.5 µM) | – | – | 4.48 ± 0.68 (≈ 14.3 µM) | – | – | – | – | – | 1.06 | –
